# Data taken from patent publication US8815931B2, “Oral formulations for tetrapyrrole derivatives” (Biolitec Pharma Marketing Ltd, priority 2009, dated 2014).
# Where two headings read alike, the source gives them in different places.
# Columns and labels:
# [1] = cited from earlier work; for Formation of metabolites in the body: in vivo
# bacteria cells = assay: Dark toxicity towards bacteria cells; assay type: cell-based; conditions: 10 μM, no light
SMILES,Formation of metabolites in the body [1],Formation of metabolites in the body ([1]; listed as Temoporfin),Effect of lipoprotein levels and cholesterol metabolism on pharmacokinetics in plasma ([1]; plasma),Dark toxicity towards bacteria cells (bacteria cells)
"Oc1cccc(-c2c3nc(c(-c4cccc(O)c4)c4ccc([nH]4)c(-c4cccc(O)c4)c4nc(c(-c5cccc(O)c5)c5ccc2[nH]5)CC4)C=C3)c1 [mTHPC, m-tetrahydroxyphenylchlorin]",does not form metabolites,no known enzyme system in the mammalian body which can metabolize Temoporfin,neither lipoprotein levels nor cholesterol metabolism affects the pharmacokinetics,–
"CCCCCCc1c2nc(c(-c3ccc(C(=O)O)cc3)c3ccc([nH]3)c(-c3ccc(C(=O)O)cc3)c3nc(c(CCCCCC)c4ccc1[nH]4)C(O)C3O)C=C2 (stereo not shown) [BLC 6066, 2,3-Dihydro-2,3-dihydroxy-15,20-dihexyl-5,10-bis(4-carboxy-phenyl)porphyrin]",–,–,–,strong dark toxicity
